From ChEMBL document CHEMBL1201862, “PubChem BioAssay data set” (2004)
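Each compound was tested at five concentrations against cells in 96-well plates for 48 hours. The concentration for 50% growth inhibition is given as GI50.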 Activity calls are given as the source filed them. No stated cut-off is given here; in the data, active = GI50 up to about 1.1 µM and inactive = higher.

What was measured:
Test in all cases: NCI-60 cell line screen, 48 h
[1] = test system: SF-268
[2] = test system: PC-3
[3] = test system: DU-145
[4] = test system: BT-549
[5] = test system: Hs-578T
[6] = test system: HOP-92
[7] = test system: NCI/ADR-RES
[8] = test system: MDA-MB-435
[9] = test system: ACHN
[10] = test system: SF-539
[11] = test system: HCT-116
[12] = test system: MCF7
[13] = test system: CCRF-CEM
[14] = test system: A549
[15] = test system: SF-295
[16] = test system: HL-60
[17] = test system: LOX IMVI
[18] = test system: SW-620
[19] = test system: U-251
[20] = test system: SK-MEL-28
[21] = test system: SK-OV-3
[22] = test system: UACC-257
[23] = test system: NCI-H522
[24] = test system: OVCAR-8
[25] = test system: M14
[26] = test system: NCI-H23
[27] = test system: CAKI-1
[28] = test system: HT-29
[29] = test system: COLO 205
[30] = test system: OVCAR-4
[31] = test system: K562
[32] = test system: OVCAR-3
[33] = test system: TK-10
[34] = test system: IGROV-1
[35] = test system: 786-0
[36] = test system: SNB-75
[37] = test system: HCC 2998
[38] = test system: SNB-19
[39] = test system: SN12C
[40] = test system: SR
[41] = test system: Malme-3M
[42] = test system: RPMI-8226
[43] = test system: MDA-N
[44] = test system: HOP-62
[45] = test system: HCT-15
[46] = test system: UACC-62
[47] = test system: T47D
[48] = test system: OVCAR-5
[49] = test system: KM12
[50] = test system: SK-MEL-5
[51] = test system: MDA-MB-231
[52] = test system: MOLT-4
[53] = test system: SK-MEL-2
[54] = test system: UO-31
[55] = test system: EKVX
[56] = test system: NCI-H460

With `CC(=O)N(C(=O)CC(=O)N1N=C(C)C(/N=N/c2cccc([N+](=O)[O-])c2)C1=O)c1ccc(Cl)cc1` (stereo not drawn) the GI50 [1] was > 10 µM (inactive), the GI50 [2] was > 10 µM (inactive) and the GI50 [3] was > 10 µM (inactive). For the same molecule, the GI50 [4] was > 10 µM (inactive), the GI50 [5] was > 10 µM (inactive) and the GI50 [6] was > 10 µM (inactive). For the same molecule, the GI50 [7] was > 10 µM (inactive), the GI50 [8] was > 10 µM (inactive) and the GI50 [9] was > 10 µM (inactive). The GI50 [10] was > 10 µM (inactive), the GI50 [11] was > 10 µM (inactive) and the GI50 [12] was > 10 µM (inactive). The GI50 [13] was > 10 µM (inactive), the GI50 [14] was > 10 µM (inactive) and the GI50 [15] was > 10 µM (inactive). For the same molecule, the GI50 [16] was > 10 µM (inactive), the GI50 [17] was > 10 µM (inactive) and the GI50 [18] was > 10 µM (inactive). The GI50 [19] was > 10 µM (inactive), the GI50 [20] was > 10 µM (inactive) and the GI50 [21] was > 10 µM (inactive). For the same molecule, the GI50 [22] was > 10 µM (inactive), the GI50 [23] was > 10 µM (inactive) and the GI50 [24] was > 10 µM (inactive). For the same molecule, the GI50 [25] was > 10 µM (inactive), the GI50 [26] was 7.03 µM (inactive) and the GI50 [27] was > 10 µM (inactive). The GI50 [28] was > 10 µM (inactive), the GI50 [29] was > 10 µM (inactive) and the GI50 [30] was > 10 µM (inactive). The GI50 [31] was > 10 µM (inactive), the GI50 [32] was > 10 µM (inactive) and the GI50 [33] was > 10 µM (inactive). For the same molecule, the GI50 [34] was > 10 µM (inactive), the GI50 [35] was > 10 µM (inactive) and the GI50 [36] was > 10 µM (inactive). The GI50 [37] was > 10 µM (inactive), the GI50 [38] was > 10 µM (inactive) and the GI50 [39] was > 10 µM (inactive). The GI50 [40] was > 10 µM (inactive), the GI50 [41] was > 10 µM (inactive) and the GI50 [42] was > 10 µM (inactive). For the same molecule, the GI50 [43] was > 10 µM (inactive), the GI50 [44] was > 10 µM (inactive) and the GI50 [45] was over 10 µM. The GI50 [46] was > 10 µM (inactive), the GI50 [47] was > 10 µM (inactive) and the GI50 [48] was > 10 µM (inactive). The GI50 [49] was > 10 µM (inactive), the GI50 [50] was > 10 µM (inactive) and the GI50 [51] was > 10 µM (inactive).
`O=C(O)/C=C/c1ccc(Oc2ccccc2C(=O)O)o1` was tested, and the GI50 [1] was > 10 µM (inactive), the GI50 [2] was > 10 µM (inactive) and the GI50 [3] was > 10 µM (inactive). The GI50 [4] was > 10 µM (inactive), the GI50 [5] was > 10 µM (inactive) and the GI50 [6] was > 10 µM (inactive). The GI50 [7] was > 10 µM (inactive), the GI50 [8] was > 10 µM (inactive) and the GI50 [9] was > 10 µM (inactive). The GI50 [10] was > 10 µM (inactive), the GI50 [11] was > 10 µM (inactive) and the GI50 [52] was > 10 µM (inactive). The GI50 [12] was > 10 µM (inactive), the GI50 [13] was > 10 µM (inactive) and the GI50 [14] was > 10 µM (inactive). For the same molecule, the GI50 [15] was > 10 µM (inactive), the GI50 [16] was > 10 µM (inactive) and the GI50 [17] was > 10 µM (inactive). The GI50 [18] was > 10 µM (inactive), the GI50 [19] was > 10 µM (inactive) and the GI50 [20] was > 10 µM (inactive). The GI50 [21] was > 10 µM (inactive), the GI50 [22] was > 10 µM (inactive) and the GI50 [23] was > 10 µM (inactive). The GI50 [24] was > 10 µM (inactive), the GI50 [25] was > 10 µM (inactive) and the GI50 [26] was > 10 µM (inactive). The GI50 [27] was > 10 µM (inactive), the GI50 [28] was > 10 µM (inactive) and the GI50 [29] was > 10 µM (inactive). For the same molecule, the GI50 [30] was > 10 µM (inactive), the GI50 [31] was > 10 µM (inactive) and the GI50 [33] was > 10 µM (inactive). For the same molecule, the GI50 [34] was > 10 µM (inactive), the GI50 [35] was > 10 µM (inactive) and the GI50 [36] was > 10 µM (inactive). The GI50 [37] was > 10 µM (inactive), the GI50 [38] was > 10 µM (inactive) and the GI50 [39] was > 10 µM (inactive). For the same molecule, the GI50 [40] was > 10 µM (inactive), the GI50 [41] was > 10 µM (inactive) and the GI50 [42] was > 10 µM (inactive). The GI50 [43] was > 10 µM (inactive), the GI50 [44] was > 10 µM (inactive) and the GI50 [45] was over 10 µM. The GI50 [46] was > 10 µM (inactive), the GI50 [47] was > 10 µM (inactive) and the GI50 [49] was > 10 µM (inactive). For the same molecule, the GI50 [50] was > 10 µM (inactive) and the GI50 [51] was > 10 µM (inactive).
For `Cc1ccc(/C=C/C(=O)Oc2ccc(/C=C3\CCC/C(=C\c4ccc(OC(=O)/C=C/c5ccc(C)cc5)cc4)C3=O)cc2)cc1`, the GI50 [1] was > 100 µM (inactive), the GI50 [2] was > 100 µM (inactive) and the GI50 [3] was > 100 µM (inactive). For the same molecule, the GI50 [53] was 48.3 µM (inactive), the GI50 [4] was > 100 µM (inactive) and the GI50 [5] was 19 µM (inactive). The GI50 [6] was 77.6 µM (inactive), the GI50 [7] was 59.3 µM (inactive) and the GI50 [8] was > 100 µM (inactive). For the same molecule, the GI50 [9] was 37.3 µM (inactive), the GI50 [10] was 21.3 µM (inactive) and the GI50 [11] was > 100 µM (inactive). For the same molecule, the GI50 [52] was > 100 µM (inactive), the GI50 [12] was > 100 µM (inactive) and the GI50 [13] was 60.8 µM (inactive). The GI50 [14] was > 100 µM (inactive), the GI50 [15] was 25.1 µM (inactive) and the GI50 [16] was 57.4 µM (inactive). The GI50 [17] was > 100 µM (inactive), the GI50 [18] was > 100 µM (inactive) and the GI50 [19] was 34 µM (inactive). For the same molecule, the GI50 [20] was > 100 µM (inactive), the GI50 [22] was > 100 µM (inactive) and the GI50 [23] was > 100 µM (inactive). For the same molecule, the GI50 [24] was 67.1 µM (inactive), the GI50 [25] was > 100 µM (inactive) and the GI50 [26] was > 100 µM (inactive). The GI50 [27] was 79.8 µM (inactive), the GI50 [28] was > 100 µM (inactive) and the GI50 [29] was > 100 µM (inactive). For the same molecule, the GI50 [30] was > 100 µM (inactive), the GI50 [32] was > 100 µM (inactive) and the GI50 [33] was 31.4 µM (inactive). For the same molecule, the GI50 [35] was 16.7 µM (inactive), the GI50 [36] was 14.2 µM (inactive) and the GI50 [37] was > 100 µM (inactive). For the same molecule, the GI50 [38] was 56.8 µM (inactive), the GI50 [39] was > 100 µM (inactive) and the GI50 [40] was 27.5 µM (inactive). For the same molecule, the GI50 [42] was > 100 µM (inactive), the GI50 [43] was > 100 µM (inactive) and the GI50 [54] was > 100 µM (inactive). The GI50 [55] was > 100 µM (inactive), the GI50 [44] was 29.1 µM (inactive) and the GI50 [56] was > 100 µM (inactive). The GI50 [45] was over 100 µM, the GI50 [46] was 74.1 µM (inactive) and the GI50 [47] was 92.3 µM (inactive). For the same molecule, the GI50 [48] was > 100 µM (inactive), the GI50 [49] was > 100 µM (inactive) and the GI50 [50] was > 100 µM (inactive). For the same molecule, the GI50 [51] was 28.8 µM (inactive).
